# Source: patent publication US10577378B2, “EIF4A-inhibiting compounds and methods related thereto” (eFFECTOR Therapeutics, Inc., priority 2015, dated 2020)
# System: MDA-MB-231 human breast cancer cells
# Test: Cell proliferation assay (CellTiter-Glo, 72 hours treatment)
# Format: cell-based
# Conditions: Homo sapiens; MDA-MB-231 cells, 72 hours at 37° C., CellTiter-Glo; read-out: MDA-MB-231 cell proliferation assay (IC50)
# Outline: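 IC50 categories: under 100 nM +++, 100–1000 nM ++, above 1000 nM +, derived by sigmoidal curve fitting of CellTiter-Glo luminescence. Cells plated at 2,500 per well, dosed the following day and exposed 72 h at 37 °C versus DMSO control.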
row,SMILES,IC50 [nM]
1,"COc1cncc2c1[C@]1(O)[C@H](O)[C@H](CNC3COC3)[C@@H](c3ccccc3)[C@]1(c1ccc(C#N)cc1)O2 (racemic) [240F, Rac-4-((4bS,5R,6S,7S,7aR)-4b,5-dihydroxy-4-methoxy-6-((oxetan-3-ylamino)methyl)-7-phenyl-4b,5,6,7-tetrahydro-7aH-cyclopenta[4,5]furo[2,3-c]pyridin-7a-yl)benzonitrile]",100 to 1000
2,"COc1cncc2c1[C@]1(O)[C@H](O)[C@H](C(=O)N3CCOCC3)[C@@H](c3ccccc3)[C@]1(c1ccc(Br)cc1)O2 (racemic) [87F, Rac-((4bS,5R,6R,7S,7aR)-7a-(4-bromophenyl)-4b,5-dihydroxy-4-methoxy-7-phenyl-4b,6,7,7a-tetrahydro-5H-cyclopenta[4,5]furo[2,3-c]pyridin-6-yl)(morpholino)methanone]",< 100
3,"CN(C)C(=O)[C@H]1C(=O)[C@@]2(O)c3ncc(Cl)cc3O[C@@]2(c2ccc(C#N)cc2)[C@@H]1c1ccccc1 (racemic) [32F, Rac-(5aR,6S,7R,8aR)-3-chloro-5a-(4-cyanophenyl)-8a-hydroxy-N,N-dimethyl-8-oxo-6-phenyl-5a,7,8,8a-tetrahydro-6H-cyclopenta[4,5]furo[3,2-b]pyridine-7-carboxamide]",> 1000
4,"O[C@H]1[C@H](Sc2ccccn2)[C@@H](c2ccccc2)[C@]2(c3ccc(Br)cc3)Oc3cc(Cl)cnc3[C@]12O (racemic) [160Fb, Rac-(5aR,6S,7R,8R,8aS)-5a-(4-bromophenyl)-3-chloro-6-phenyl-7-(pyridin-2-ylthio)-5a,6,7,8-tetrahydro-8aH-cyclopenta[4,5]furo[3,2-b]pyridine-8,8a-diol]",> 1000
5,"CN(C)C(=O)[C@H]1[C@@H](O)[C@@]2(O)c3ncc(Cl)cc3O[C@@]2(c2ccc(C(F)F)cc2)[C@@H]1c1ccccc1 (single isomer, unassigned) [16F]",100 to 1000
6,"COc1cncc2c1[C@]1(O)[C@H](O)[C@H](CN(C)CC(F)F)[C@@H](c3ccccc3)[C@]1(c1ccc(C#N)cc1)O2 (single isomer, unassigned) [112F]",100 to 1000
7,"Clc1cnc2c(c1)O[C@@]1(c3ccc(Br)cc3)[C@H](c3ccccc3)C[C@@H]3O[C@@]231 (racemic) [63F, Rac-(1aS,3S,3aR,8bS)-3a-(4-bromophenyl)-6-chloro-3-phenyl-1a,2,3,3a-tetrahydro-oxireno[2″,3″:1′,5′]cyclopenta[1′,2′:4,5]furo[3,2-b]pyridine]",> 1000
8,"COc1cncc2c1[C@]1(O)[C@H](O)[C@H](CN(C)C3CC3)[C@@H](c3ccccc3)[C@]1(c1ccc(C#N)cc1)O2 (racemic) [246F, Rac-4-((4bS,5R,6S,7S,7aR)-6-((cyclopropyl(methyl)amino)methyl)-4b,5-dihydroxy-4-methoxy-7-phenyl-4b,5,6,7-tetrahydro-7aH-cyclopenta[4,5]furo[2,3-c]pyridin-7a-yl)benzonitrile]",100 to 1000
9,"COc1nc(C#N)cc2c1[C@]1(O)[C@H](O)[C@H](CN3CCCC3)[C@@H](c3ccccc3)[C@]1(c1ccc(C#N)cc1)O2 (racemic) [158Fc, Rac-(5aR,6S,7S,8R,8aS)-5a-(4-cyanophenyl)-8,8a-dihydroxy-1-methoxy-6-phenyl-7-(pyrrolidin-1-ylmethyl)-5a,7,8,8a-tetrahydro-6H-cyclopenta[4,5]furo[3,2-c]pyridine-3-carbonitrile]",< 100
10,"COc1cncc2c1[C@]1(O)[C@H](O)[C@H](C(=O)NCc3ccnn3C)[C@@H](c3ccccc3)[C@]1(c1ccc(Br)cc1)O2 (racemic) [241F, rac-(4bS,5R,6R,7S,7aR)-7a-(4-bromophenyl)-4b,5-dihydroxy-4-methoxy-N-((1-methyl-1H-pyrazol-5-yl)methyl)-7-phenyl-4b,6,7,7a-tetrahydro-5H-cyclopenta[4,5]furo[2,3-c]pyridine-6-carboxamide]",< 100
11,"COc1cncc2c1[C@]1(O)[C@H](O)[C@H](C(=O)N(C)Cc3ccnn3C)[C@@H](c3ccccc3)[C@]1(c1ccc(Br)cc1)O2 (racemic) [249F, Rac-(4bS,5R,6R,7S,7aR)-7a-(4-bromophenyl)-4b,5-dihydroxy-4-methoxy-N-methyl-N-((1-methyl-1H-pyrazol-5-yl)methyl)-7-phenyl-4b,6,7,7a-tetrahydro-5H-cyclopenta[4,5]furo[2,3-c]pyridine-6-carboxamide]",< 100
12,"N#Cc1ccc([C@@]23Oc4cc(Cl)cnc4[C@]2(O)[C@@H](CN)C[C@H]3c2ccccc2)cc1 (racemic) [175F, Rac-4-((5aR,6S,8R,8aR)-8-(aminomethyl)-3-chloro-8a-hydroxy-6-phenyl-6,7,8,8a-tetrahydro-5aH-cyclopenta[4,5]furo[3,2-b]pyridin-5a-yl)benzonitrile]",< 100
13,"CN(C)S(=O)(=O)[C@H]1[C@@H](O)[C@@]2(O)c3ncc(Cl)cc3O[C@@]2(c2ccc(C#N)cc2)[C@@H]1c1ccccc1 (racemic) [22F, Rac-(5aR,6S,7R,8S,8aS)-3-chloro-5a-(4-cyanophenyl)-8,8a-dihydroxy-N,N-dimethyl-6-phenyl-5a,7,8,8a-tetrahydro-6H-cyclopenta[4,5]furo[3,2-b]pyridine-7-sulfonamide]",100 to 1000
14,"COc1nc(Cl)cc2c1[C@]1(O)[C@H](O)[C@H](CN(C)C)[C@@H](c3ccccc3)[C@]1(c1ccc(Cl)cc1)O2 (racemic) [142F, Rac-(5aR,6S,7S,8R,8aS)-3-chloro-5a-(4-chlorophenyl)-7-((dimethylamino)methyl)-1-methoxy-6-phenyl-5a,6,7,8-tetrahydro-8aH-cyclopenta[4,5]furo[3,2-c]pyridine-8,8a-diol]",< 100
15,"COc1nc(Cl)cc2c1[C@]1(O)[C@H](O)[C@H](CN3CC(F)(F)C3)[C@@H](c3ccccc3)[C@]1(c1ccc(C#N)cc1)O2 (racemic) [207Fb, Rac-4-((5aR,6S,7S,8R,8aS)-3-chloro-7-((3,3-difluoroazetidin-1-yl)methyl)-8,8a-dihydroxy-1-methoxy-6-phenyl-6,7,8,8a-tetrahydro-5aH-cyclopenta[4,5]furo[3,2-c]pyridin-5a-yl)benzonitrile]",100 to 1000
16,"CNC[C@H]1[C@@H](O)[C@@]2(O)c3ncc(Cl)cc3O[C@@]2(c2ccc(C#N)cc2)[C@@H]1c1ccccc1 (racemic) [39F, Rac-4-((5aR,6S,7S,8R,8aS)-3-chloro-8,8a-dihydroxy-7-((methylamino)methyl)-6-phenyl-6,7,8,8a-tetrahydro-5aH-cyclopenta[4,5]furo[3,2-b]pyridin-5a-yl)benzonitrile]",100 to 1000
17,"CCN(CC)C[C@H]1[C@@H](O)[C@@]2(O)c3c(cc(C#N)nc3OC)O[C@@]2(c2ccc(Br)cc2)[C@@H]1c1ccccc1 (racemic) [159Fa, Rac-(5aR,6S,7S,8R,8aS)-5a-(4-bromophenyl)-7-((diethylamino)methyl)-8,8a-dihydroxy-1-methoxy-6-phenyl-5a,7,8,8a-tetrahydro-6H-cyclopenta[4,5]furo[3,2-c]pyridine-3-carbonitrile]",< 100
18,"N#Cc1ccc([C@@]23Oc4cc(Cl)cnc4[C@]2(O)[C@@H](C#N)[C@H](C(N)=O)[C@H]3c2ccccc2)cc1 (racemic) [52F, Rac-(5aR,6S,7R,8R,8aR)-3-chloro-8-cyano-5a-(4-cyanophenyl)-8a-hydroxy-6-phenyl-5a,7,8,8a-tetrahydro-6H-cyclopenta[4,5]furo[3,2-b]pyridine-7-carboxamide]",100 to 1000
19,"COc1cncc2c1[C@]1(O)[C@H](O)[C@H](C(=O)N3CCOCC3)[C@@H](c3ccccc3)[C@]1(c1ccc(C(F)(F)F)cc1)O2 (racemic) [281F, rac-((4bS,5R,6R,7S,7aR)-4b,5-dihydroxy-4-methoxy-7-phenyl-7a-(4-(trifluoromethyl)phenyl)-4b,6,7,7a-tetrahydro-5H-cyclopenta[4,5]furo[2,3-c]pyridin-6-yl)(morpholino)methanone]",100 to 1000
20,"COc1cncc2c1[C@]1(O)[C@@H]3OC(=O)C[C@@H]3[C@@H](c3ccccc3)[C@]1(c1ccc(Br)cc1)O2 (racemic) [275F, Rac-(3aR,4S,4aR,9bS,9cR)-4a-(4-bromophenyl)-9b-hydroxy-9-methoxy-4-phenyl-3,3a,4,4a,9b,9c-hexahydro-2H-furo[3″,2″:4′,5′]cyclopenta[1′,2′:4,5]furo[2,3-c]pyridin-2-one]",< 100
21,"COC(=O)[C@@H]1[C@@H](c2ccccc2)[C@]2(c3ccc(Br)cc3)Oc3cc(Cl)cnc3[C@]2(O)[C@H]1C#N (racemic) [49F, Rac-methyl (5aR,6S,7R,8R,8aR)-5a-(4-bromophenyl)-3-chloro-8-cyano-8a-hydroxy-6-phenyl-5a,7,8,8a-tetrahydro-6H-cyclopenta[4,5]furo[3,2-b]pyridine-7-carboxylate]",100 to 1000
22,"COc1cncc2c1C1(O)[C@H](O)[C@H](CNCc3cccnc3)[C@@H](c3ccccc3)[C@]1(c1ccc(C#N)cc1)O2 (mixture of isomers) [78F, Rac-4-((5R,6S,7S,7aR)-4b,5-dihydroxy-4-methoxy-7-phenyl-6-(((pyridin-3-ylmethyl)amino)methyl)-4b,5,6,7-tetrahydro-7aH-cyclopenta[4,5]furo[2,3-c]pyridin-7a-yl)benzonitrile]",100 to 1000
23,"C#CC1(O)C(C(=O)N(C)C)[C@@H](c2ccccc2)[C@]2(c3ccc(Br)cc3)Oc3cc(Cl)cnc3[C@]12O (mixture of isomers) [190F, rac-(5aR,6S,8aS)-5a-(4-bromophenyl)-3-chloro-8-ethynyl-8,8a-dihydroxy-N,N-dimethyl-6-phenyl-5a,7,8,8a-tetrahydro-6H-cyclopenta[4,5]furo[3,2-b]pyridine-7-carboxamide]",100 to 1000
24,"COc1cncc2c1[C@]1(O)[C@H](O)[C@H](C(=O)NCC(F)F)[C@@H](c3ccccc3)[C@]1(c1ccc(Br)cc1)O2 (racemic) [116F, Rac-(4bS,5R,6R,7S,7aR)-7a-(4-bromophenyl)-N-(2,2-difluoroethyl)-4b,5-dihydroxy-4-methoxy-7-phenyl-4b,6,7,7a-tetrahydro-5H-cyclopenta[4,5]furo[2,3-c]pyridine-6-carboxamide]",< 100
